Test results reported in paper PMC9224512, “New Insights into the Determinants of Specificity in Human Type I Arginase: Generation of a Mutant That Is Only Active with Agmatine as Substrate” (International Journal of Molecular Sciences, 2022).
Substitutions are numbered along the chain they refer to. “And” between values parts separate entries of the source, which are not always exact repeats. Equal values may be shown once.

Legend:
Type in all cases: biochemical
[1] = target: T1, WT-arginase (human arginase type I) (Homo sapiens, UniProt P05089); assay: Kinetic and inhibition studies, wild-type human arginase type I
T1 construct: made in house; host or cells: E. coli JM109
T1 sequence (P05089 1-322): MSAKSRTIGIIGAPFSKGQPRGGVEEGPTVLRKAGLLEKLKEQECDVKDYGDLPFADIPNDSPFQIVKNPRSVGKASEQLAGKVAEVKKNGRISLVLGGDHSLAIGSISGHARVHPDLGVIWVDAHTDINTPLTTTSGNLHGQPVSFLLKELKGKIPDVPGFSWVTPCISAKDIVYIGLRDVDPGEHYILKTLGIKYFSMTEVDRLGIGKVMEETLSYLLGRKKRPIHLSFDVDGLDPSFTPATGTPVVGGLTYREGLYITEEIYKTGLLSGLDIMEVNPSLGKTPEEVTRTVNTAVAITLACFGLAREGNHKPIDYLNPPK
Protocol: (§1) Bacterial cultures were grown with shaking at 37 °C in Luria Broth media, in the presence of ampicillin (100 μg/mL). The wild-type and mutant human liver arginase cDNAs were directionally cloned into the pBluescript II KS(+) expression vector and then expressed in E. coli JM109, following induction with 1 mM isopropyl β-D-thiogalactopyranoside. The bacterial cells were disrupted by sonication on ice (5 × 30 s pulses), centrifuged for 20 min at 12,000× g, and the obtained supernatant was precipitated with ammonium sulfate (60% saturation). The pellet, collected by centrifugation at 12,000× g for 10 min, was re-suspended in buffer 5 mM Tris–HCl (pH 7.5) containing 2 mM MnCl2 and dialyzed for 6 h at 4 °C against the same buffer. After incubation with 5 mM MnCl2 for 10 min at 60 °C, the enzyme variants were purified as previously described. The purity of the enzymes was evaluated by SDS–PAGE stained by Coomassie blue and immunodetection using an anti- rat arginase I antibody.
(§2) All assays were initiated by adding the enzyme to a previously equilibrated buffer with the substrate in solution (the concentrations of used substrates were between 0.2–3 fold the Km). Urea was determined by a colorimetric method with α-isonitrosopropiophenone. The protein concentrations were determined by the Bradford’s method, with bovine serum albumin as standard. Initial velocity and enzymatic inhibition experiments were performed in duplicate and repeated three times. The inhibitory patterns were initially determined by double reciprocal plots and re-plots of intercepts and slopes versus inhibitor concentrations. […] Velocities are expressed as μmol of urea/10 min.

[2] = target: T2, human arginase type I N130D (Homo sapiens, UniProt P05089, N130D); assay: Kinetic and inhibition studies, N130D mutant
T2 sequence (P05089 1-322 N130D): T1 sequence (P05089 1-322) with N130D
Protocol: as §1
(§3) The single, double, triple, and chimera variants of human arginase type I were obtained by PCR, using the QuickChange site-directed mutagenesis kit (Stratagene, La Jolla, CA, USA); the plasmid pBluescript II KS(+) containing the human liver arginase cDNA was used as template. To obtain the chimeric species of human arginase type I, serial mutations were made in each loop to be modified, using as template DNA the wild-type arginase gene or the previous done mutation, subcloned in the plasmid pBluescript II KS (+). Specifically, the residues present in the arginase structure were replaced by those corresponding to the agmatinase sequence of E. coli.
as §2

[3] = target: T3, human arginase type I S137C (Homo sapiens, UniProt P05089, S137C); assay: Kinetic and inhibition studies, S137C mutant
T3 sequence (P05089 1-322 S137C): T1 sequence (P05089 1-322) with S137C
Protocol: as §1, §3, §2

[4] = target: T4, human arginase type I N130D-N139D (Homo sapiens, UniProt P05089, N130D/N139D); assay: Kinetic and inhibition studies, N130D-N139D mutant
T4 sequence (P05089 1-322 N130D/N139D): T1 sequence (P05089 1-322) with N130D, N139D
Protocol: as §1, §3
(§4) All assays were initiated by adding the enzyme to a previously equilibrated buffer with the substrate in solution (the concentrations of used substrates were between 0.2–3 fold the Km). Urea was determined by a colorimetric method with α-isonitrosopropiophenone. The protein concentrations were determined by the Bradford’s method, with bovine serum albumin as standard. […]

[5] = target: T5, human arginase type I N130D-S137C-N139D (Homo sapiens, UniProt P05089, N130D/N139D/S137C); assay: Kinetic and inhibition studies, triple mutant
T5 sequence (P05089 1-322 N130D/S137C/N139D): T1 sequence (P05089 1-322) with N130D, S137C, N139D
Protocol: as §1, §3, §4

[6] = substrate = labelled compound, pH 9.5, 2 mM Mn2+

Compound	Inhibition type ([1]; substrate arginine)	Kis (Ki) ([1]; substrate arginine, pH 9.5) [mM]	Ki ([2]; read-out: Ki^orn) [mM]	Ki ([3]; read-out: Ki^orn) [mM]	Ki ([4]; read-out: Ki^orn) [mM]	Ki ([5]; read-out: Ki^orn) [mM]	Km [1, 6] [mM]	kcat ([1]; substrate = labelled compound, pH 9.5, 2 mM Mn2+, n/a = no activity with the substrate)	Km [2, 6] [mM]	kcat [2, 6] [s⁻¹]	catalytic activity relative to wild type ([2]; substrate arginine) [%]	kcat/Km ratio, times less than wild-type enzyme ([2]; substrate arginine) [times]	kcat ([3]; substrate = labelled compound) [s⁻¹]	Km [3, 6] [mM]	kcat ([4]; substrate = labelled compound) [s⁻¹]	Km [4, 6] [mM]	kcat ([5]; substrate = labelled compound) [s⁻¹]	Km [5, 6] [mM]
NCCC[C@H](N)C(=O)O [Ornithine, L-ornithine]	Competitive	2 ± 0.5	7.8	7.6	6.4	5.4	–	–	–	–	–	–	–	–	–	–	–	–
N=C(N)NCCC[C@H](N)C(=O)O [Arginine, L-arginine]	–	–	–	–	–	–	1.5	190 s⁻¹ and 190 ± 10 s⁻¹	13.3	33	17	50	75	3.2	33	6.1	4	6.9
